Results reported in publication PMC4728128, “Two-subunit DNA escort mechanism and inactive subunit bypass in an ultra-fast ring ATPase” (eLife, 2015).

Key:
SpoIIIE [1] = target: T1, SpoIIIE (Bacillus subtilis, UniProt P21458); test: optical tweezers rupture force of SpoIIIE-DNA tether (indirect sign of nucleotide binding); conditions: 1 mM ADP, no ATP; dsDNA
T1 construct: N-terminal biotin tag (PinPoint Xa-1) fused to SpoIIIE from plasmid pJB103 (Bath et al. 2000); recombinant, purified; homo-hexamer

SpoIIIE [2] = target: T1, SpoIIIE; test: single-molecule optical tweezers DNA translocation; format: biochemical; conditions: dsDNA, 50 mM Tris-HCl pH 7.5, 10 mM MgCl2

T1 sequence (P21458 175-787): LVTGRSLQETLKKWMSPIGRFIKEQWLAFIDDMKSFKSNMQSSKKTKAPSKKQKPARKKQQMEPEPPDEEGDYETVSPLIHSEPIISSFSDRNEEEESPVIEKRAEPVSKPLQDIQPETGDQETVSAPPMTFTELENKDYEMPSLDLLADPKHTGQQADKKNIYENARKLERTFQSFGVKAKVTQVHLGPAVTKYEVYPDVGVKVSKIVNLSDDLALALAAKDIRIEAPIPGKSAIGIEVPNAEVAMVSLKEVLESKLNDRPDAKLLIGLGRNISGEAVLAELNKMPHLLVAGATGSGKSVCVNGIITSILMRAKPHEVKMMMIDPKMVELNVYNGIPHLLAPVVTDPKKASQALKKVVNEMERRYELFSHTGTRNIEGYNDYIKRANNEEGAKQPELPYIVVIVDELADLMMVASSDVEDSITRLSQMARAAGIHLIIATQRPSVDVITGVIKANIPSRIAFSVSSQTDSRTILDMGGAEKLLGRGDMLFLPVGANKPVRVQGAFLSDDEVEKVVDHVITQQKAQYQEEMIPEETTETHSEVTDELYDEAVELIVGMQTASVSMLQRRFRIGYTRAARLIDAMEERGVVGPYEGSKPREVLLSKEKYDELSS

Km (SpoIIIE [2])	Structure (SMILES)	optical tweezers rupture force of SpoIIIE-DNA tether (indirect sign of nucleotid) (SpoIIIE [1])
	Nc1ncnc2c1ncn2[C@@H]1O[C@H](COP(=O)(O)OP(=O)(O)O)[C@@H](O)[C@H]1O [ADP]	In buffers containing only ADP or ATPγS, SpoIIIE could bind to DNA
505 ± 50 µM	Nc1ncnc2c1ncn2[C@@H]1O[C@H](COP(=O)(O)OP(=O)(O)OP(=O)(O)O)[C@@H](O)[C@H]1O [ATP]	
